Results reported in the kinase profiling compilation of Christmann-Franck et al. (2016).
Where “and” joins values, the source holds several entries; their conditions need not be identical. Identical values can stand only once.

Key:
Assay in all cases: Caliper, Mobility shift assay off-chip
MKNK1 (human) = MKNK1 (human) (UniProt Q9BUB5)
DYRK3 (human) = DYRK3 (human) (UniProt O43781)
YES1 (human) = YES1 (human) (UniProt P07947)
MARK3 (human) = MARK3 (human) (UniProt P27448)
FGFR4 (human) = FGFR4 (human) (UniProt P22455)
Chain of FGFR4 (human) (P22455 whole entry, looked up): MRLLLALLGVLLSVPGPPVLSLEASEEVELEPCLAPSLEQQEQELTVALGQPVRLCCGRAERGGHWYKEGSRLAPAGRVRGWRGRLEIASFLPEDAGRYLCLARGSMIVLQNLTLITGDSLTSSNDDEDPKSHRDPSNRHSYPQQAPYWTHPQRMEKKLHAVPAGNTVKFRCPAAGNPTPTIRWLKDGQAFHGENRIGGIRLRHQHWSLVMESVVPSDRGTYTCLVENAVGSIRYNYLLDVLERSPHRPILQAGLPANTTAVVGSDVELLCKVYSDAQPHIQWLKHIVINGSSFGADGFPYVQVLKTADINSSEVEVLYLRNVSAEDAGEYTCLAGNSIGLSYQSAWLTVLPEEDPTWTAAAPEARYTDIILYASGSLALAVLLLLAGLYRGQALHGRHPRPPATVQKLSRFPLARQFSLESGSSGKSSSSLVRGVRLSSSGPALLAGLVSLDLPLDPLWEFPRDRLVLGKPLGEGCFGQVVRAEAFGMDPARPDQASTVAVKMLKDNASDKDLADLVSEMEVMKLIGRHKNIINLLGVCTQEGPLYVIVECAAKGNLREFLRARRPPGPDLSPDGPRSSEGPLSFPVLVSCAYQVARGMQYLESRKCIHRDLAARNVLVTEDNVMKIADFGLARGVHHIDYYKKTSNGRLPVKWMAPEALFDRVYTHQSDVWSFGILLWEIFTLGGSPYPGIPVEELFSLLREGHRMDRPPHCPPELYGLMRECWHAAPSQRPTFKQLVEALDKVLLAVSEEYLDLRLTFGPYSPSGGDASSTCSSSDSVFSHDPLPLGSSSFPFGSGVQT

BLK (human) = BLK (human) (UniProt P51451)
FGFR2 (human) = FGFR2 (human) (UniProt P21802)
NEK6 (human) = NEK6 (human) (UniProt Q9HC98)
PTK6 (human) = PTK6 (human) (UniProt Q13882)
Chain of PTK6 (human) (Q13882 whole entry, looked up): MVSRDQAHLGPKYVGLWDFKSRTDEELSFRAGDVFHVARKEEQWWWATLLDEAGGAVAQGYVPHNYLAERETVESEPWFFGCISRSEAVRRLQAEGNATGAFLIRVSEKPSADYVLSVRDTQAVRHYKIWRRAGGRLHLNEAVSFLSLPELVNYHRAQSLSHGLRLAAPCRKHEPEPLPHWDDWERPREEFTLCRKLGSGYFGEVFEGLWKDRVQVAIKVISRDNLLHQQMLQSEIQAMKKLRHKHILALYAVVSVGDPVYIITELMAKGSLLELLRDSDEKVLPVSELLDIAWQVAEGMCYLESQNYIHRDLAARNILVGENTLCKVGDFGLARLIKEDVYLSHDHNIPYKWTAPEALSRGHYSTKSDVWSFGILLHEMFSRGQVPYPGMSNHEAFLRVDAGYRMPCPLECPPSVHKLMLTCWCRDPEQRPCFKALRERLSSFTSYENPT

PTK2B (human) = PTK2B (human) (UniProt Q14289)
Chain of PTK2B (human) (Q14289 whole entry, looked up): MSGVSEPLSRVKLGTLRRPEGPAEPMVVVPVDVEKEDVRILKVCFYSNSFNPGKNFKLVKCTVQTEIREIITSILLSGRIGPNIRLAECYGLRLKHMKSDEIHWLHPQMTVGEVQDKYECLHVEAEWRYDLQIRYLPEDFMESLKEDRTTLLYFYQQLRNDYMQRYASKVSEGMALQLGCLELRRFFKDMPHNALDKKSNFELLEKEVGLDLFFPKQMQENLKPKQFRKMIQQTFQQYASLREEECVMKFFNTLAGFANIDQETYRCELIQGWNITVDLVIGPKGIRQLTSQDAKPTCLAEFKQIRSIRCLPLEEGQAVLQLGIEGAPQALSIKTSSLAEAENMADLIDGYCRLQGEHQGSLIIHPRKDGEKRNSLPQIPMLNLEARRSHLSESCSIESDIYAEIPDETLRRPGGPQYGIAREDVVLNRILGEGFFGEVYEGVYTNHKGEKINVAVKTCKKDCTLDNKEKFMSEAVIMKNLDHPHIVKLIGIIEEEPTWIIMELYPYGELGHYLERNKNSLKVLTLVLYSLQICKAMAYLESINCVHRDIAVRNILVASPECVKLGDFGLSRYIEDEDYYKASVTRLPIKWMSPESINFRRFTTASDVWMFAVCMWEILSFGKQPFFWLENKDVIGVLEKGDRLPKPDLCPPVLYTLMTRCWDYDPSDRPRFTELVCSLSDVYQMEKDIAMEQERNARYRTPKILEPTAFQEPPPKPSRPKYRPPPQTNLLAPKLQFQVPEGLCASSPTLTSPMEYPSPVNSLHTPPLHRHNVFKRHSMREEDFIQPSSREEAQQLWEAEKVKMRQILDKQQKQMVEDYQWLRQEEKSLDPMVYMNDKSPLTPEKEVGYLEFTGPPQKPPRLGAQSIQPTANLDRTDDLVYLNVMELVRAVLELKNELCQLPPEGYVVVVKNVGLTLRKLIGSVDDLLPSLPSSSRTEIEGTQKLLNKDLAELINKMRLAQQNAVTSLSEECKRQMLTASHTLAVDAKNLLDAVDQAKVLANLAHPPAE

TEC (human) = TEC (human) (UniProt P42680)
CDC42BPA (human) = CDC42BPA (human) (UniProt Q5VT25)
PRKCA (human) = PRKCA (human) (UniProt P17252)
GSG2 (human) = GSG2 (human) (UniProt Q8TF76)
Chain of GSG2 (human) (Q8TF76 whole entry, looked up): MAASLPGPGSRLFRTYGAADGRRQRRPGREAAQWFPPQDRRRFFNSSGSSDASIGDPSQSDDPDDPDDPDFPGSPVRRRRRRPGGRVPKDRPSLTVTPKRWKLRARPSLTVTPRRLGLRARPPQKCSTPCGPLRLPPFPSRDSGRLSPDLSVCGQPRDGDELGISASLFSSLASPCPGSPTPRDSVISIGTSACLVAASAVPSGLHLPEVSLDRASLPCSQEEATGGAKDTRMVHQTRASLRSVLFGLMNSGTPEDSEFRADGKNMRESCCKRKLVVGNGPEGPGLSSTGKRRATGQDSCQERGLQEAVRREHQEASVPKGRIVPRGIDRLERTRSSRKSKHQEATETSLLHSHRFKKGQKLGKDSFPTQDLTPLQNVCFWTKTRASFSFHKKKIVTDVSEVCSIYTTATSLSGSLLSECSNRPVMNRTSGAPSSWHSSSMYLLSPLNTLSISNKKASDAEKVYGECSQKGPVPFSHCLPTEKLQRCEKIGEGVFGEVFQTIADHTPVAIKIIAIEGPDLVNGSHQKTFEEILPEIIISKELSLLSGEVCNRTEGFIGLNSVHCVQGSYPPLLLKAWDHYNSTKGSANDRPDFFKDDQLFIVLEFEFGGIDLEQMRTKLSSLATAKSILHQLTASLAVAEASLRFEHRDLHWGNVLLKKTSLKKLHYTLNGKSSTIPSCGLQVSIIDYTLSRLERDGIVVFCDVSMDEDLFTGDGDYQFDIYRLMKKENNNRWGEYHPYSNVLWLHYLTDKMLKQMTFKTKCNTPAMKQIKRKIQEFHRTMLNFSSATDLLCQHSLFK

HIPK2 (human) = HIPK2 (human) (UniProt Q9H2X6)
CSNK2A2 (human) = CSNK2A2 (human) (UniProt P19784)
Chain of CSNK2A2 (human) (P19784 whole entry, looked up): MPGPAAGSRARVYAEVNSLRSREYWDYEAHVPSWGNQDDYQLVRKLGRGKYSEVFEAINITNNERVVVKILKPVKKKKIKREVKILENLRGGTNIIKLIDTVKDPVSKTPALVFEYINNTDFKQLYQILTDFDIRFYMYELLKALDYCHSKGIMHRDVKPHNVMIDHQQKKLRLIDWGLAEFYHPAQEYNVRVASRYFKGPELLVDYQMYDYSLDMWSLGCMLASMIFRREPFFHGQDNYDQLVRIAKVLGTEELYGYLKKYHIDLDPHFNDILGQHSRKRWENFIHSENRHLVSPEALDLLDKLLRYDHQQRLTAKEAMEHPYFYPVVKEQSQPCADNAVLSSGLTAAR

PRKCB1 (human) = PRKCB1 (human) (UniProt P05771)
Chain of PRKCB1 (human) (P05771 whole entry, looked up): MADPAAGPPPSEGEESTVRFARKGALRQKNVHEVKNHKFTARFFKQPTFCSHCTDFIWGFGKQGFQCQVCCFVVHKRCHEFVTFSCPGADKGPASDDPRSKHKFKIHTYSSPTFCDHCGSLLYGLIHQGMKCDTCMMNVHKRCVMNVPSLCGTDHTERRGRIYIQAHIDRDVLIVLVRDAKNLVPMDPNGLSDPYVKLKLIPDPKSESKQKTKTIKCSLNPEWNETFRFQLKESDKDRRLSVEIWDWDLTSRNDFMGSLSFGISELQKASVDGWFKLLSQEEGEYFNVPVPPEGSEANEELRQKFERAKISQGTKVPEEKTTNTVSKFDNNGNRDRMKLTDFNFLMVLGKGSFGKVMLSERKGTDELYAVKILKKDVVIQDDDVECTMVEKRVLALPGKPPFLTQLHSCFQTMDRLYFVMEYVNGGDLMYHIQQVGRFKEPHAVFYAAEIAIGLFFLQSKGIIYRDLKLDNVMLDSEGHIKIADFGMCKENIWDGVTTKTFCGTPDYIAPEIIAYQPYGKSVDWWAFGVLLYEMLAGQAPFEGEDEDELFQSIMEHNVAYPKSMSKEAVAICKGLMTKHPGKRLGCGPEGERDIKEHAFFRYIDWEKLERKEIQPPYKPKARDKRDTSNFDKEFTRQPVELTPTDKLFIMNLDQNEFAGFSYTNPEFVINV

HIPK4 (human) = HIPK4 (human) (UniProt Q8NE63)
MAPK12 (human) = MAPK12 (human) (UniProt P53778)
BTK (human) = BTK (human) (UniProt Q06187)
STK38L (human) = STK38L (human) (UniProt Q9Y2H1)
PDK4 (human) = PDK4 (human) (UniProt Q16654)
EPHA5 (human) = EPHA5 (human) (UniProt P54756)
TSSK3 (human) = TSSK3 (human) (UniProt Q96PN8)
MAPK9 (human) = MAPK9 (human) (UniProt P45984)
Chain of MAPK9 (human) (P45984 whole entry, looked up): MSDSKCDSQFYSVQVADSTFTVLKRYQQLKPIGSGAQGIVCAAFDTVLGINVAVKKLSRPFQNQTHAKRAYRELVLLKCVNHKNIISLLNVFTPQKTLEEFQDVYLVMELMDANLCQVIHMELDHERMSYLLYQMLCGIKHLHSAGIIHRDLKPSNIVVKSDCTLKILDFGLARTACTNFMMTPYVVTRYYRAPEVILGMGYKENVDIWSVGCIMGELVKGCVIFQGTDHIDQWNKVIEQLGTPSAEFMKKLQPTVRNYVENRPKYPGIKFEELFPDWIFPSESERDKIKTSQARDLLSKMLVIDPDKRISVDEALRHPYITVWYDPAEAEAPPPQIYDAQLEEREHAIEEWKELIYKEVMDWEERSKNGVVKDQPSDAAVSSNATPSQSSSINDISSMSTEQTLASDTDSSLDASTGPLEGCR

SPHK2 (human) = SPHK2 (human) (UniProt Q9NRA0)
MAPK8 (human) = MAPK8 (human) (UniProt P45983)
PRKX (human) = PRKX (human) (UniProt P51817)
SGK3 (human) = SGK3 (human) (UniProt Q96BR1)
Chain of SGK3 (human) (Q96BR1 whole entry, looked up): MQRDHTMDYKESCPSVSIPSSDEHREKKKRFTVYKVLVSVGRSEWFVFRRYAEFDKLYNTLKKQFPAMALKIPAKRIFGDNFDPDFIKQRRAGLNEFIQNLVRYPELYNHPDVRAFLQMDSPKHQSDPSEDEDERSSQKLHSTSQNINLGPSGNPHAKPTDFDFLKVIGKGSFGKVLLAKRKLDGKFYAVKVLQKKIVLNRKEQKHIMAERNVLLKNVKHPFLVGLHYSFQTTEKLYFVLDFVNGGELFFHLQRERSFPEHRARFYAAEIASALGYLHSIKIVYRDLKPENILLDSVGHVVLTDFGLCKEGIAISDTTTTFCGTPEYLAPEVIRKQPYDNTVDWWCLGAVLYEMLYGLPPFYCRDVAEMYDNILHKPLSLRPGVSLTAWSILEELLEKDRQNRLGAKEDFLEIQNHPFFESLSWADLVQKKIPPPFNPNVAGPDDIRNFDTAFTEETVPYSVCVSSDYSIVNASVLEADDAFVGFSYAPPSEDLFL

MAPKAPK5 (human) = MAPKAPK5 (human) (UniProt Q8IW41)
MAPK7 (human) = MAPK7 (human) (UniProt Q13164)
NTRK2 (human) = NTRK2 (human) (UniProt Q16620); details: compound 0.02 µM
PRKD3 (human) = PRKD3 (human) (UniProt O94806)
EPHB1 (human) = EPHB1 (human) (UniProt P54762)

Molecule `COc1cc2c(Oc3ccc4[nH]c(C)cc4c3F)ncnc2cc1OCCCN1CCCC1` has an inhibition (MKNK1 (human); compound 0.02 µM) of -2.9%, an inhibition (MKNK1 (human); compound 0.2 µM) of 2.6% and an inhibition (DYRK3 (human); compound 0.02 µM) of -7.2%. The inhibition (DYRK3 (human); compound 0.2 µM) was -7.9%, the inhibition (YES1 (human); compound 0.02 µM) was 26.9% and the inhibition (YES1 (human); compound 0.2 µM) was 73.7%. It also gave an inhibition (MARK3 (human); compound 0.02 µM) of -1.8%, an inhibition (MARK3 (human); compound 0.2 µM) of -3.4% and an inhibition (FGFR4 (human); compound 0.02 µM) of 3.2%. For the same molecule, the inhibition (FGFR4 (human); compound 0.2 µM) was 22.3%, the inhibition (BLK (human); compound 0.02 µM) was 13.8% and the inhibition (BLK (human); compound 0.2 µM) was 36.1%. It also gave an inhibition (FGFR2 (human); compound 0.02 µM) of 71.8%, an inhibition (FGFR2 (human); compound 0.2 µM) of 98.3% and an inhibition (NEK6 (human); compound 0.02 µM) of -4.2%. The inhibition (NEK6 (human); compound 0.2 µM) was -3.5%, the Ki (PTK6 (human)) was 11.8 nM and the inhibition (PTK6 (human); compound 0.02 µM) was 44.1%. It also gave an inhibition (PTK6 (human); compound 0.2 µM) of 92.1%, an inhibition (PTK2B (human); compound 0.02 µM) of -1.9% and an inhibition (PTK2B (human); compound 0.2 µM) of -5.4%. The inhibition (TEC (human); compound 0.02 µM) was 4.5%, the inhibition (TEC (human); compound 0.2 µM) was 5.3% and the inhibition (CDC42BPA (human); compound 0.02 µM) was 3.4%. The inhibition (CDC42BPA (human); compound 0.2 µM) was 14.9%, the inhibition (PRKCA (human); compound 0.02 µM) was 10.1% and the inhibition (PRKCA (human); compound 0.2 µM) was 0.3%. For the same molecule, the inhibition (GSG2 (human); compound 0.02 µM) was 0.4%, the inhibition (GSG2 (human); compound 0.2 µM) was -0.4% and the inhibition (HIPK2 (human); compound 0.02 µM) was -1.7%. The inhibition (HIPK2 (human); compound 0.2 µM) was 0.7%, the inhibition (CSNK2A2 (human); compound 0.02 µM) was -0.7% and the inhibition (CSNK2A2 (human); compound 0.2 µM) was -1.2%. For the same molecule, the inhibition (PRKCB1 (human); compound 0.02 µM) was 5.1% and 8.3%, the inhibition (PRKCB1 (human); compound 0.2 µM) was 7.3% and 7.5% and the inhibition (HIPK4 (human); compound 0.02 µM) was -0.9%. The inhibition (HIPK4 (human); compound 0.2 µM) was -6.5%, the inhibition (MAPK12 (human); compound 0.02 µM) was -4.8% and the inhibition (MAPK12 (human); compound 0.2 µM) was -0.1%. It also gave an inhibition (BTK (human); compound 0.02 µM) of 3.4%, an inhibition (BTK (human); compound 0.2 µM) of 10.1% and an inhibition (STK38L (human); compound 0.02 µM) of 8.9%. For the same molecule, the inhibition (STK38L (human); compound 0.2 µM) was -0.2%, the inhibition (PDK4 (human); compound 0.02 µM) was 2.7% and the inhibition (PDK4 (human); compound 0.2 µM) was 1.6%. For the same molecule, the inhibition (EPHA5 (human); compound 0.02 µM) was -0.9%, the inhibition (EPHA5 (human); compound 0.2 µM) was 7.6% and the inhibition (TSSK3 (human); compound 0.02 µM) was 0.6%. For the same molecule, the inhibition (TSSK3 (human); compound 0.2 µM) was 12.5%, the inhibition (MAPK9 (human); compound 0.02 µM) was -9.4% and the inhibition (MAPK9 (human); compound 0.2 µM) was -7.7%. For the same molecule, the inhibition (SPHK2 (human); compound 0.02 µM) was 6.4%, the inhibition (SPHK2 (human); compound 0.2 µM) was 2.8% and the inhibition (MAPK8 (human); compound 0.02 µM) was -2.8%. For the same molecule, the inhibition (MAPK8 (human); compound 0.2 µM) was -2.5%, the inhibition (PRKX (human); compound 0.02 µM) was 1.7% and the inhibition (PRKX (human); compound 0.2 µM) was -0.9%. For the same molecule, the inhibition (SGK3 (human); compound 0.02 µM) was 8.5%, the inhibition (SGK3 (human); compound 0.2 µM) was 1.9% and the inhibition (MAPKAPK5 (human); compound 0.02 µM) was 2%. The inhibition (MAPKAPK5 (human); compound 0.2 µM) was 0.1%, the inhibition (MAPK7 (human); compound 0.02 µM) was -8.6% and the inhibition (MAPK7 (human); compound 0.2 µM) was -6.2%. For the same molecule, the inhibition (NTRK2 (human)) was 8.3%, the inhibition (PRKD3 (human); compound 0.02 µM) was -1% and the inhibition (PRKD3 (human); compound 0.2 µM) was -2.5%. It also gave an inhibition (EPHB1 (human); compound 0.02 µM) of -7.8% and an inhibition (EPHB1 (human); compound 0.2 µM) of -0.3%.
